Broadly, the melting point is the temperature, or range, at which the solid turns liquid.

SMILES strings stand for the structures.

This is an account of results in paper PMC10020958, “2-(4-Fluorophenyl)-1H-benzo[d]imidazole as a Promising Template for the Development of Metabolically Robust, α1β2γ2GABA-A Receptor-Positive Allosteric Modulators” (ACS Chemical Neuroscience, 2023).

In data set [1] the target is GABA-A receptor (benzodiazepine site, α1/γ2 interface). The data set is described as follows: Radioligand binding assay for the GABA-A receptor ([3H]-flunitrazepam displacement, rat brain homogenate). Conditions: pKi = -log Ki, n.a. = no affinity.
Data set [2] deals with T1, α1β2γ2-GABA-A receptors stably expressed in HEK293 cells (Homo sapiens, UniProt P14867+P18507).
T1 construct: expressed in transfected cells
The experiment in a line: Electrophysiological studies, automated patch clamp (QPatch16X), positive allosteric modulation of GABA-induced Cl- currents. Format: cell-based. Conditions: compound 1 μM co-applied with 10 μM GABA; GABA alone = 100%; mean ± SEM. The method, then: Given that ligands binding within the α1/γ2 interface act as PAMs, we selected the most promising 1H-benzo[d]imidazoles (9, 15, 16, 23, and 29) for electrophysiological studies using automated patch clamp recordings (QPatch16X, Sophion). We expected that 1H-benzo[d]imidazoles would potentiate GABA-induced Cl^– currents rather than inducing ion passage alone.
Electrophysiology studies were performed using the QPatch16X automatic patch clamp platform (Sophion Biosciences) and HEK293 cells, stably expressing the α1β2γ2 subunits of the human GABA-A receptor. Prior to the assay recordings, the cells were transferred from the culture flask through a TrypLE Express solution (LifeTechnologies) and resuspended in serum-free media. The cells were placed in the lidless microtube, located onboard the automated electrophysiology instrument. The cells were then automatically relocated to a built-in centrifuge, spun down, and washed in Ringer’s extracellular solution. The cells were transferred to the pipetting wells of a single-use 16-channel planar patch chip plate (QPlate 16X), and gigaseals were formed upon implementation of a combined suction/voltage protocol. Subsequent suction induced whole-cell configuration. The chloride currents passed via the GABA-A receptor were recorded for 7 s after single addition of a tested molecule. Through whole-cell recording, the holding potential was set to −90 mV. The assay was performed at room temperature. The extracellular solution was composed of the following ingredients: consisted of 2 mM […], 145 mM NaCl, 10 mM HEPES, CaCl2, 1 mM MgCl2, 10 mM glucose (pH 7.4, 300 mOsm), and intracellular solution contained 140 mM CsF, 1 mM EGTA, 5 mM CsOH, 10 mM HEPES, and 20 mMNaCl (pH 7.2, 320 mOsm). The screening assays were established in the instrument software by sequential application of 10 μM GABA (reference agonist AG1), 1 μM examined molecule compounds, and compounds co-administered with 10 μM GABA (T2); second addition of 10 μM GABA (AG2); 10 μM bicuculline (reference antagonist) along with 10 μM GABA (ATG). The intermission among the addition of particular molecules was 60 s. In a typical procedure, 5 μL of ligand was added to the cells, followed by 3 s of washout with an extracellular solution (two times […]). For the allosteric modulator/antagonist mode, the cells were preincubated with the tested compound alone for 50 s, followed by the addition of the reference agonist. The data obtained were processed using QPatch Assay Software (v5.0, Sophion Biosciences) and are represented as the mean of at least three independent experiments performed on separate cells. The validation criteria for a single test were current amplitude evoked by adding GABA greater than 500 pA and a change between cells’ response to GABA applications (AG1 and AG2) not greater than 25%. The relative compound efficiency was analyzed as the baseline-corrected ratio of maximal current amplitudes induced by the addition of tested compounds and reference agonist (T1-ATG/AG1-ATG or T2-ATG/AG1-ATG). The obtained raw current recordings were normalized and represented as % of the current amplitude induced by a reference agonist (GABA = 100%) using the QPatch Assay Software (v5.0, Sophion Biosciences).[24]
Background: Patch clamp records ionic current or voltage across a cell membrane.

T1 sequence (P14867 28-456): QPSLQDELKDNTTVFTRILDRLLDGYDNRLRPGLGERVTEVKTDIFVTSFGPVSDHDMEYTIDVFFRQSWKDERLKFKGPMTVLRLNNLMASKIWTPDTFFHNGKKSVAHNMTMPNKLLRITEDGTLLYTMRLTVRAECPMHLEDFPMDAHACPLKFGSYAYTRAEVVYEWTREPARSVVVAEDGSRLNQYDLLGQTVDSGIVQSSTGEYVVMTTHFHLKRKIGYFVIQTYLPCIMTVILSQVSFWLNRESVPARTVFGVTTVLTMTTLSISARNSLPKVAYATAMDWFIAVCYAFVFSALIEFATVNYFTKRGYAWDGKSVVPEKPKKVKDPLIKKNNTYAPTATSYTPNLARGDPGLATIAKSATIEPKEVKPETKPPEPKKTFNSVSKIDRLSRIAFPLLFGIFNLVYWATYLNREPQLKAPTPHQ
T1 sequence (P47870 25-512 partner limits assumed): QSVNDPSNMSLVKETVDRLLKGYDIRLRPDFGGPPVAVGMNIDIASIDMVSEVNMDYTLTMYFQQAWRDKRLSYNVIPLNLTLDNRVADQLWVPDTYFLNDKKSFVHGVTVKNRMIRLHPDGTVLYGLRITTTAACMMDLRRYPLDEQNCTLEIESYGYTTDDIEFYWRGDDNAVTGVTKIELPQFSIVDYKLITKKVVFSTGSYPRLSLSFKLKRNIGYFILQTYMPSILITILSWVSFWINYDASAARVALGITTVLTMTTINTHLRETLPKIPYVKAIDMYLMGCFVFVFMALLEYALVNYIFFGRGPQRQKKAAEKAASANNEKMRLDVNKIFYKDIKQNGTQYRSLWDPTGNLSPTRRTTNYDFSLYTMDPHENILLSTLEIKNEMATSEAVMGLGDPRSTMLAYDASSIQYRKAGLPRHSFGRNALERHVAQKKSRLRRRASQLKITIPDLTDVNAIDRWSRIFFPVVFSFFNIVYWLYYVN
T1 sequence (P18507 40-475): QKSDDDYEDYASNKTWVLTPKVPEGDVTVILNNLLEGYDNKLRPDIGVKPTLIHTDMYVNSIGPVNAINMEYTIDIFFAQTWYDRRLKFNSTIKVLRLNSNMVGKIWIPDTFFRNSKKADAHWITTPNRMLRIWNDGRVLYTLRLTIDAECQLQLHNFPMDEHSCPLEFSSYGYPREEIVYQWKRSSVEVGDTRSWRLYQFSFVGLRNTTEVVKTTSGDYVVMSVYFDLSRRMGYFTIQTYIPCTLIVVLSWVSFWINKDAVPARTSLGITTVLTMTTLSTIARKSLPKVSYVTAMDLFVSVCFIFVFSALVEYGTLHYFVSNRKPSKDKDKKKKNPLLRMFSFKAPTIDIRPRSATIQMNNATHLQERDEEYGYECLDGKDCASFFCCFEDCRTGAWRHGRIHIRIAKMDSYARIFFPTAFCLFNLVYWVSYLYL

Take `COc1ccc(NC(=O)Cn2c(-c3ccc(F)cc3)nc3ccccc32)cc1` [Compound 26, 2-(2-(4-Fluorophenyl)-1H-benzo[d]imidazole-1-yl)-N-(4-methoxyphenyl)acetamide]: the melting point fell in the range of 255.1 to 255.7 °C. Moreover, in data set [1], the “pKi GABA-A” value was “loss of affinity”.

For `O=C(Cn1c(-c2ccc(F)cc2)nc2ccccc21)Nc1ccccc1` [Compound 22, 2-(2-(4-Fluorophenyl)-1H-benzo[d]imidazole-1-yl)-N-phenylacetamide], the melting point fell in the range of 236.7 to 239 °C.

For the compound `O=C(Cn1c(-c2ccc(F)cc2)nc2ccccc21)Nc1ccc(F)cc1` [Compound 29, N-(4-Fluorophenyl)-2-(2-(4-fluorophenyl)-1H-benzo[d]imidazole-1-yl)acetamide], the melting point was 248 to 248.2 °C. Besides, the “pKi GABA-A” value in data set [1] was found to be 5.74. Also, in data set [2], the “% of 10 μM GABA response” value is 112 ± 2,8%.

As to `Cc1ccc2c(c1)nc(-c1ccc(F)cc1)n2CC(=O)N1CCSCC1` [Compound 12, 2-(2-(4-Fluorophenyl)-5-methyl-1H-benzo[d]imidazole-1-yl)-1-thiomorpholinoethan-1-one], the melting point fell in the range of 199 to 200.9 °C. Besides, in data set [1], the “pKi GABA-A” value is “no affinity”.

The compound `COc1cccc(NC(=O)Cn2c(-c3ccc(F)cc3)nc3ccccc32)c1` [Compound 25, 2-(2-(4-Fluorophenyl)-1H-benzo[d]imidazole-1-yl)-N-(3-methoxyphenyl)acetamide] yielded a melting point of 149.1 to 149.9 °C. Besides, in data set [1], the “pKi GABA-A” value was 5.02.

Compound `O=C(Cn1c(-c2ccc(F)cc2)nc2ccccc21)Nc1ccccc1F` [Compound 27, N-(2-Fluorophenyl)-2-(2-(4-fluorophenyl)-1H-benzo[d]imidazole-1-yl)acetamide] registered a melting point of 212.1 to 212.8 °C.

Consider `CN(C)C(=O)Cn1c(-c2ccc(F)cc2)nc2ccccc21` [Compound 15, 2-(2-(4-Fluorophenyl)-1H-benzo[d]imidazole-1-yl)-N,N-dimethylacetamide], for which the melting point fell in the range of 182.3 to 183.1 °C. The “pKi GABA-A” value in data set [1] was determined as 5.39. The “% of 10 μM GABA response” value in data set [2] is 105 ± 2,5%.

`O=C(Cn1c(-c2ccc(F)cc2)nc2ccccc21)N1CCNCC1` [Compound 17, 2-(2-(4-Fluorophenyl)-1H-benzo[d]imidazole-1-yl)-1-(piperazin-1-yl)ethan-1-one]: the melting point is 232.8 to 234.1 °C. For the same compound, in data set [1], the “pKi GABA-A” value is on record as “loss of activity”.

The compound `O=C(Cn1c(-c2ccc(F)cc2)nc2ccccc21)N1CCSCC1` [Compound 21, 2-(2-(4-Fluorophenyl)-1H-benzo[d]imidazole-1-yl)-1-thiomorpholinoethan-1-one] had a melting point of 205.3 to 205.8 °C.

For the compound `O=C(Cn1c(-c2ccc(F)cc2)nc2ccccc21)N1CCOCC1` [Compound 20, 2-(2-(4-Fluorophenyl)-1H-benzo[d]imidazole-1-yl)-1-morpholinoethan-1-one], the “pKi GABA-A” value in data set [1] is given as “loss of activity”.

With `Cc1ccc(-c2nc3ccc(C)cn3c2CC(=O)N(C)C)cc1` [zolpidem, reference compound], the “pKi GABA-A” value in data set [1] was found to be 7.39. In data set [2], the “% of 10 μM GABA response” value was 212 ± 8,5%.

On to `CN1CCN(C(=O)Cn2c(-c3ccc(F)cc3)nc3ccccc32)CC1` [Compound 18, 2-(2-(4-Fluorophenyl)-1H-benzo[d]imidazole-1-yl)-1-(4-methylpiperazin-1-yl)ethan-1-one], for which the melting point lay within 172.3 to 173.1 °C.

The compound `Cc1ccc2c(c1)nc(-c1ccc(F)cc1)n2CC(=O)N1CCCC1` [Compound 10, 2-(2-(4-Fluorophenyl)-5-methyl-1H-benzo[d]imidazole-1-yl)-1-(pyrrolidin-1-yl)ethan-1-one] gave a melting point of 208.7 to 210.2 °C. For the same compound, the “pKi GABA-A” value in data set [1] is reported as “no affinity”.

`CC1CN(C(=O)Cn2c(-c3ccc(F)cc3)nc3ccccc32)CC(C)N1` (stereo not drawn) [Compound 19, 1-(3,5-Dimethylpiperazin-1-yl)-2-(2-(4-fluorophenyl)-1H-benzo[d]imidazole-1-yl)ethan-1-one] had a melting point of 109.6 to 112.4 °C.

For the compound `COc1ccccc1NC(=O)Cn1c(-c2ccc(F)cc2)nc2ccccc21` [Compound 24, 2-(2-(4-Fluorophenyl)-1H-benzo[d]imidazole-1-yl)-N-(2-methoxyphenyl)acetamide], the melting point is 206.9 to 207.2 °C. In addition, the “pKi GABA-A” value in data set [1] is recorded as “loss of affinity”.

With `O=C(Cn1c(-c2ccc(F)cc2)nc2ccccc21)Nc1cccc(F)c1` [Compound 28, N-(3-Fluorophenyl)-2-(2-(4-fluorophenyl)-1H-benzo[d]imidazole-1-yl)acetamide], the melting point is 182.3 to 182.7 °C.

Regarding `O=C(Cn1c(-c2ccc(F)cc2)nc2ccccc21)N1CCCC1` [Compound 16, 2-(2-(4-Fluorophenyl)-1H-benzo[d]imidazole-1-yl)-1-(pyrrolidin-1-yl)ethan-1-one], the melting point fell in the range of 212.9 to 214 °C. Also, the “pKi GABA-A” value in data set [1] came out at 5.53. Besides, the “% of 10 μM GABA response” value in data set [2] is 124 ± 5,2%.

For `Cc1ccc2nc(-c3ccc(F)cc3)n(CC(=O)N3CCSCC3)c2c1` [Compound 11, 2-(2-(4-Fluorophenyl)-6-methyl-1H-benzo[d]imidazole-1-yl)-1-thiomorpholinoethan-1-one], the melting point lay in the range of 205.3 to 207.1 °C. Further, the “pKi GABA-A” value in data set [1] is 5.1.

`Cc1ccc2c(c1)nc(-c1ccc(F)cc1)n2CC(=O)Nc1ccccc1` [Compound 14, 2-(2-(4-Fluorophenyl)-5-methyl-1H-benzo[d]imidazole-1-yl)-N-phenylacetamide] came in with a melting point of 207.3 to 209.2 °C. The “pKi GABA-A” value in data set [1] is on record as “no affinity”.

`Cc1ccc2nc(-c3ccc(F)cc3)n(CC(=O)Nc3ccccc3)c2c1` [Compound 13, 2-(2-(4-Fluorophenyl)-6-methyl-1H-benzo[d]imidazole-1-yl)-N-phenylacetamide]: the melting point was 202.5 to 205 °C. The “pKi GABA-A” value in data set [1] was determined as 5.53.
